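Five concentrations, 48 hours, 96-well plates. TGI: total growth inhibition.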
Tests used:
Assay in all cases: NCI-60 cell line screen, 48 h
HL-60(TB) leukemia = system: HL-60(TB) leukemia
UACC-257 melanoma = system: UACC-257 melanoma
HCT-116 colon = system: HCT-116 colon
HT29 colon = system: HT29 colon
NCI-H522 lung = system: NCI-H522 lung
SNB-75 CNS = system: SNB-75 CNS
786-0 renal = system: 786-0 renal
SW-620 colon = system: SW-620 colon
SR leukemia = system: SR leukemia
EKVX NSCLC = system: EKVX NSCLC
NCI-H460 lung = system: NCI-H460 lung
OVCAR-5 ovarian = system: OVCAR-5 ovarian
RPMI-8226 leukemia = system: RPMI-8226 leukemia
U251 CNS = system: U251 CNS
SN12C renal = system: SN12C renal
OVCAR-3 ovarian = system: OVCAR-3 ovarian
MCF7 breast = system: MCF7 breast
MOLT-4 leukemia = system: MOLT-4 leukemia
NCI/ADR-RES ovarian = system: NCI/ADR-RES ovarian
ACHN renal = system: ACHN renal
MDA-N = system: MDA-N
PC-3 prostate = system: PC-3 prostate
UO-31 renal = system: UO-31 renal
OVCAR-4 ovarian = system: OVCAR-4 ovarian
CAKI-1 renal = system: CAKI-1 renal
K-562 leukemia = system: K-562 leukemia
LOX IMVI melanoma = system: LOX IMVI melanoma
UACC-62 melanoma = system: UACC-62 melanoma
NCI-H23 lung = system: NCI-H23 lung
SK-OV-3 ovarian = system: SK-OV-3 ovarian
A549 NSCLC = system: A549 NSCLC
IGROV1 ovarian = system: IGROV1 ovarian
RXF 393 renal = system: RXF 393 renal
SF-539 CNS = system: SF-539 CNS
SF-295 CNS = system: SF-295 CNS
SK-MEL-28 melanoma = system: SK-MEL-28 melanoma
BT-549 breast = system: BT-549 breast
M14 melanoma = system: M14 melanoma
KM12 colon = system: KM12 colon
HOP-92 NSCLC = system: HOP-92 NSCLC
SK-MEL-5 melanoma = system: SK-MEL-5 melanoma
HCT-15 colon = system: HCT-15 colon
MDA-MB-231 breast = system: MDA-MB-231 breast
A498 renal = system: A498 renal
DU-145 prostate = system: DU-145 prostate
HOP-62 NSCLC = system: HOP-62 NSCLC
NCI-H226 lung = system: NCI-H226 lung
OVCAR-8 ovarian = system: OVCAR-8 ovarian
SF-268 CNS = system: SF-268 CNS
MALME-3M melanoma = system: MALME-3M melanoma
HS 578T breast = system: HS 578T breast
T-47D breast = system: T-47D breast
COLO 205 colon = system: COLO 205 colon
MDA-MB-435 = system: MDA-MB-435
SK-MEL-2 melanoma = system: SK-MEL-2 melanoma
TK-10 renal = system: TK-10 renal
CCRF-CEM leukemia = system: CCRF-CEM leukemia
SNB-19 CNS = system: SNB-19 CNS

`Cc1cc(C)c(S(=O)(=O)N(CCCN)OCCCON(CCCN)S(=O)(=O)c2c(C)cc(C)cc2C)c(C)c1` showed a TGI (HL-60(TB) leukemia) of 5.64 µM, a TGI (UACC-257 melanoma) of 3.44 µM and a TGI (HCT-116 colon) of 3.17 µM. It also gave a TGI (HT29 colon) of 3.22 µM, a TGI (NCI-H522 lung) of 2.88 µM and a TGI (SNB-75 CNS) of 3.29 µM. It also gave a TGI (786-0 renal) of 5.86 µM, a TGI (SW-620 colon) of 6.45 µM and a TGI (SR leukemia) of 7.83 µM. It also gave a TGI (EKVX NSCLC) of 19.4 µM, a TGI (NCI-H460 lung) of 3.18 µM and a TGI (OVCAR-5 ovarian) of 5.86 µM. For the same compound, the TGI (RPMI-8226 leukemia) was 6.55 µM, the TGI (U251 CNS) was 3.08 µM and the TGI (SN12C renal) was 13.6 µM. It also gave a TGI (OVCAR-3 ovarian) of 4.26 µM, a TGI (MCF7 breast) of 3.41 µM and a TGI (MOLT-4 leukemia) of 10.7 µM. For the same compound, the TGI (NCI/ADR-RES ovarian) was 36.4 µM, the TGI (ACHN renal) was 28.9 µM and the TGI (MDA-N) was 3.51 µM. The TGI (PC-3 prostate) was 3.45 µM, the TGI (UO-31 renal) was 30.4 µM and the TGI (OVCAR-4 ovarian) was 5.22 µM. It also gave a TGI (CAKI-1 renal) of 29.3 µM, a TGI (K-562 leukemia) of over 22.5 µM and a TGI (LOX IMVI melanoma) of 3.11 µM. It also gave a TGI (UACC-62 melanoma) of 6.09 µM, a TGI (NCI-H23 lung) of 4.66 µM and a TGI (SK-OV-3 ovarian) of 3.58 µM. For the same compound, the TGI (A549 NSCLC) was 3.3 µM, the TGI (IGROV1 ovarian) was 3.86 µM and the TGI (RXF 393 renal) was 15.7 µM. The TGI (SF-539 CNS) was 3.77 µM, the TGI (SF-295 CNS) was 21.4 µM and the TGI (SK-MEL-28 melanoma) was 3.94 µM. The TGI (BT-549 breast) was 8.64 µM, the TGI (M14 melanoma) was 3.21 µM and the TGI (KM12 colon) was 3.79 µM. The TGI (HOP-92 NSCLC) was 5.27 µM, the TGI (SK-MEL-5 melanoma) was over 42.8 µM and the TGI (HCT-15 colon) was 34.8 µM. For the same compound, the TGI (MDA-MB-231 breast) was 3.31 µM, the TGI (A498 renal) was 10.7 µM and the TGI (DU-145 prostate) was 3.15 µM. For the same compound, the TGI (HOP-62 NSCLC) was 4.02 µM, the TGI (NCI-H226 lung) was 7.66 µM and the TGI (OVCAR-8 ovarian) was 11 µM. The TGI (SF-268 CNS) was 2.8 µM, the TGI (MALME-3M melanoma) was 2.61 µM and the TGI (HS 578T breast) was 3.16 µM. The TGI (T-47D breast) was 3.36 µM, the TGI (COLO 205 colon) was 3.5 µM and the TGI (MDA-MB-435) was 4.21 µM. For the same compound, the TGI (SK-MEL-2 melanoma) was 3.29 µM, the TGI (TK-10 renal) was 16.5 µM and the TGI (CCRF-CEM leukemia) was 16.8 µM. The TGI (SNB-19 CNS) was 3.17 µM.

Work on `COc1cc(C(c2c(O)c3ccccc3oc2=O)c2c(O)c3ccccc3oc2=O)cc(Br)c1O` yielded a TGI (HL-60(TB) leukemia) of 64.2 µM, a TGI (UACC-257 melanoma) of 33 µM and a TGI (HCT-116 colon) of 32.7 µM. It also gave a TGI (HT29 colon) of 37.1 µM, a TGI (NCI-H522 lung) of 26.8 µM and a TGI (SNB-75 CNS) of 39.4 µM. It also gave a TGI (786-0 renal) of 37.8 µM, a TGI (SW-620 colon) of 48.4 µM and a TGI (SR leukemia) of 58.3 µM. It also gave a TGI (EKVX NSCLC) of 34.2 µM, a TGI (OVCAR-5 ovarian) of 39.3 µM and a TGI (RPMI-8226 leukemia) of 80.4 µM. It also gave a TGI (U251 CNS) of 31.9 µM, a TGI (SN12C renal) of 29.8 µM and a TGI (OVCAR-3 ovarian) of 30.9 µM. It also gave a TGI (MCF7 breast) of 31.3 µM, a TGI (MOLT-4 leukemia) of 64.8 µM and a TGI (NCI/ADR-RES ovarian) of 53.1 µM. It also gave a TGI (ACHN renal) of 31.2 µM, a TGI (MDA-N) of 36 µM and a TGI (PC-3 prostate) of 35 µM. For the same compound, the TGI (UO-31 renal) was 31 µM, the TGI (OVCAR-4 ovarian) was 30.9 µM and the TGI (CAKI-1 renal) was 34.9 µM. It also gave a TGI (K-562 leukemia) of over 100 µM, a TGI (LOX IMVI melanoma) of 33.8 µM and a TGI (UACC-62 melanoma) of 29.6 µM. It also gave a TGI (NCI-H23 lung) of 42.7 µM, a TGI (SK-OV-3 ovarian) of 35.8 µM and a TGI (A549 NSCLC) of 35.6 µM. The TGI (IGROV1 ovarian) was 30 µM, the TGI (RXF 393 renal) was 39.6 µM and the TGI (SF-539 CNS) was 33.7 µM. For the same compound, the TGI (SF-295 CNS) was 40.3 µM, the TGI (SK-MEL-28 melanoma) was 59.2 µM and the TGI (BT-549 breast) was 32.5 µM. The TGI (M14 melanoma) was 31.4 µM, the TGI (KM12 colon) was 38.7 µM and the TGI (HOP-92 NSCLC) was 26.2 µM. The TGI (SK-MEL-5 melanoma) was 29.8 µM, the TGI (HCT-15 colon) was 36.4 µM and the TGI (MDA-MB-231 breast) was 32.8 µM. It also gave a TGI (A498 renal) of 29.4 µM, a TGI (DU-145 prostate) of 33.6 µM and a TGI (HOP-62 NSCLC) of 45.8 µM. For the same compound, the TGI (NCI-H226 lung) was 49.1 µM, the TGI (OVCAR-8 ovarian) was 32.3 µM and the TGI (SF-268 CNS) was 30 µM. The TGI (MALME-3M melanoma) was 31 µM, the TGI (HS 578T breast) was 51.8 µM and the TGI (T-47D breast) was 53.3 µM. The TGI (COLO 205 colon) was 32 µM, the TGI (MDA-MB-435) was 51.6 µM and the TGI (SK-MEL-2 melanoma) was 42.5 µM. It also gave a TGI (TK-10 renal) of 30.6 µM and a TGI (SNB-19 CNS) of 36.1 µM.

Reference: PubChem BioAssay (NCI)
